One may read the inhibition as the drop in the measured response relative to a control, in per cent. Lower therefore signals a weak effect. Usually IC50 stands for the concentration needed to halve the response being measured.

This experiment has as its target T1, GR (Rattus norvegicus, UniProt P06536).
T1 construct: expressed in transfected cells; host or cells: T47D/A1-2
T1 sequence (P06536 1-795): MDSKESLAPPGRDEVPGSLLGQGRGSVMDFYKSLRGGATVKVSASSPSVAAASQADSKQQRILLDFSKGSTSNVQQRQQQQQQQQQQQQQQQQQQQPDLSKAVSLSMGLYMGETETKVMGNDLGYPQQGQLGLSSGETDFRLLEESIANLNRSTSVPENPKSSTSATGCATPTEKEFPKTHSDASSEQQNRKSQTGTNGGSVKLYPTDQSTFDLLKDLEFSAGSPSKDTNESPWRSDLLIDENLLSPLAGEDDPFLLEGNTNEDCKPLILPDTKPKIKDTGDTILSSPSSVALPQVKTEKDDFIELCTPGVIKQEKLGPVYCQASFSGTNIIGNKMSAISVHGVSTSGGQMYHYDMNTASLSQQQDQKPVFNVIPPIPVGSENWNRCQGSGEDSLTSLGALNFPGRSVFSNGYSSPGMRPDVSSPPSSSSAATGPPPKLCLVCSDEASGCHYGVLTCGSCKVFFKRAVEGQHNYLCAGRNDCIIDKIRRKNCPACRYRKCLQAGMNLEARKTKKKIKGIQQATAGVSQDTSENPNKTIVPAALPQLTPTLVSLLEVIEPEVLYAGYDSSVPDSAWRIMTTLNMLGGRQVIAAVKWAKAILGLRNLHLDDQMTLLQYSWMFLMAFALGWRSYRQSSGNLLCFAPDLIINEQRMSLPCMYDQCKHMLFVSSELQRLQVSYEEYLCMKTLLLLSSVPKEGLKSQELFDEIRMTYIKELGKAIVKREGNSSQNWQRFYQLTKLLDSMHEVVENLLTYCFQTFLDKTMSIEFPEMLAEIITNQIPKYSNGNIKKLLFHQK
The experiment in a line: GR transactivation, MMTV-luciferase reporter in T47D cells. The experiment is classed as cell-based, human. The method, then: The T47D-KBluc cells stably express an (ERE)3-luciferase reporter gene (38). Cells were maintained in phenol red-free RPMI 1640 with 2 mM L-glutamine, 1.5 g/l sodium bicarbonate, 4.5 g/l glucose, 10 mM Hepes, pH 7.5, 1 mM sodium pyruvate, 10% FBS (Atlanta Biological, Atlanta, Ga.) and antibiotics. Four days before E2 induction, the cells were switched to the above medium, with 10% 2× charcoal-dextran-treated calf serum instead of FBS. 200,000 cells/well were transferred to each well of a 24-well plate. After 24 h the indicated concentrations of the test compounds were added in DMSO and E2 was added to 20 pM. After 24 h cells were washed once in PBS, and 150 μl 1× Passive Lysis Buffer (Promega, Madison Wis.) was used to lyse the cells. Luciferase activity was determined using firefly luciferase reagents from Promega (Madison, Wis.). T47D cells stably transfected to express GR and a mouse mammary tumor virus luciferase reporter that responds to liganded GR and PR were maintained and assayed in medium containing 5 nM progesterone for PR assays, or 2.5 nM dexamethsaone for GR assays, essentially as described (39).
Reporter Gene Assays. TPSF was identified by reporter gene assays comparing the ability of ˜200 compounds structurally related to TPBM (see reference 19) to inhibit transcription of a stably transfected (ERE)3-luciferase reporter gene in T47D-KBluc breast cancer cells (20). AR was assayed in stably transfected HeLa cells and GR was assayed in stably transfected T47D cells maintained as described above. Four days before each experiment the cells were switched to medium containing CD-treated serum as described above. The HeLaAR cells were plated at 100,000 cells/well and the T47D/A1-2 and T47D-KBluc cells were plated at 200,000 cells/well in 1 ml of their respective media in 24-well plates. After 24 hours the indicated concentrations of E2, dihydrotestosterone (DHT) or dexamethasone (Dex) and DMSO vehicle, with or without TPSF, were added to each well. After 24 hours, the cells were washed once in phosphate buffered saline and lysed using 100 μl of 1× Passive Lysis Buffer (Promega, Madison Wis.). Luciferase activity was determined using BrightGlo firefly luciferase reagent from Promega (Madison, Wis.).

Molecule `Cn1c(=O)c2nc(CSCc3ccccc3)[nH]c2n(C)c1=O` [Compound 95910, 8-Benzylsulfanylmethyl-1,3-dimethyl-3,7-dihydro-purine-2,6-dione] registered an inhibition at 30 µM (T47D, 30 μM, 2.5 nM dexamethasone) of around 35%. The “effect on GR transactivation” value (up to 20 μM, 2.5 nM dexamethasone) is given as “did not inhibit”.

In the case of `Cn1c(=S)c2[nH]c(SCCCC(=O)c3ccc(F)cc3)nc2n(C)c1=O` [TPSF, Butyrophenone, p-fluoro-4-(1,2,3,6,-tetrahydro-1,3-dimethyl-2-oxo-6-thionopurin-8-ylthio)], the IC50 (stably transfected T47D cells, 100 nM Dex, 24 h, read-out: IC50 for inhibition of GR gene expression (MMTV-Luc)) amounted to 10 µM.

For the origin of these results see patent US8871751B2, “Compositions and methods relating to nuclear hormone and steroid hormone receptors including inhibitors of estrogen receptor alpha-mediated gene expression and inhibition of breast cancer” (The Board of Trustees of the University of Illinois, priority 2008, dated 2014).
